Data: patent publication US20160097044A1, “Antimicrobial Enzyme Fusions Reduce Resistance and Kill Intracellular Staphylococcus aureus” (The United States of America, as Represented by the …, priority 2014, published 2016)

Experiments:
S. aureus Newbould 305 = assay: Minimum Inhibitory Concentration (MIC) assay; assay type: cell-based; details: Mastitis isolate S. aureus Newbould 305
Description: (§1) The Minimum Inhibitory Concentrations (MIC) of each protein for multiple S. aureus strains was determined as previously described (Jones et al. 1985. In: Manual of Clinical Microbiology, Eds. Balows et al. American Society of Microbiology, Washington D.C., pp. 972-977) with the following modifications. Enzymes were serially diluted two fold across a 96 well plate, such that after dilution, 50 μl of the enzyme solution in 300 mM NaCl, 50 mM NaH2PO4, 30% glycerol pH 7.5, remained in each well. To each well was added 50 μl of TSB and 100 μl of S. aureus Newman in TSB (diluted to 5×10^6 cells/ml). The plates were incubated 20 h at 37° C. and read with a 96 well plate reader. MIC determination values were reported as the median of ≧4 replicates (Table 1).

S. aureus Newman = assay: Minimum Inhibitory Concentration (MIC) assay; assay type: cell-based; details: for Minimum Inhibitory Conc. (median μg/ml): S. aureus Newman
Description: as §1

N315 (NRS 70) = assay: Minimum Inhibitory Concentration (MIC) assay; assay type: cell-based, S. aureus
Description: as §1

NRS 192 = assay: Minimum Inhibitory Concentration (MIC) assay; assay type: cell-based, S. aureus
Description: as §1

NRS 193 = assay: Minimum Inhibitory Concentration (MIC) assay; assay type: cell-based, S. aureus
Description: as §1

NRS 194 = assay: Minimum Inhibitory Concentration (MIC) assay; assay type: cell-based, S. aureus
Description: as §1

NRS 209 = assay: Minimum Inhibitory Concentration (MIC) assay; assay type: cell-based, S. aureus
Description: as §1

NRS 271 = assay: Minimum Inhibitory Concentration (MIC) assay; assay type: cell-based, S. aureus
Description: as §1

Sanger 252 (NRS 71) = assay: Minimum Inhibitory Concentration (MIC) assay; assay type: cell-based, S. aureus
Description: as §1

USA 100 (NRS 382) = assay: Minimum Inhibitory Concentration (MIC) assay; assay type: cell-based, S. aureus
Description: as §1

USA 200 (NRS 383) = assay: Minimum Inhibitory Concentration (MIC) assay; assay type: cell-based, S. aureus
Description: as §1

USA 300 (NRS 384) = assay: Minimum Inhibitory Concentration (MIC) assay; assay type: cell-based, S. aureus
Description: as §1

USA 400 (NRS 123) = assay: Minimum Inhibitory Concentration (MIC) assay; assay type: cell-based, S. aureus
Description: as §1

USA 500 (NRS 385) = assay: Minimum Inhibitory Concentration (MIC) assay; assay type: cell-based, S. aureus
Description: as §1

USA 600 (NRS 22) = assay: Minimum Inhibitory Concentration (MIC) assay; assay type: cell-based, S. aureus
Description: as §1

S. epidermidis MP04 = assay: Minimum Inhibitory Concentration (MIC) assay; assay type: cell-based, Staphylococcus epidermidis; details: Mastitis isolate S. epidermidis MP04
S. xylosus MP05 = assay: Minimum Inhibitory Concentration (MIC) assay; assay type: cell-based, Staphylococcus xylosus; details: Mastitis isolate S. xylosus MP05
S. aureus strain Newman = assay: Resistance development, plate lysis repeated exposure method; assay type: cell-based; details: not shown
Description: For the plate lysis assays, purified enzymes were serially diluted in saline lysis buffer (SLB; 150 mM NaCl 10 mM Tris buffer, pH 7.5) with 15% glycerol, to yield concentrations of 100, 10, 1, and 0.1 pmoles/10 μl. S. aureus Newman was cultivated in tryptic soy broth (TSB) to an OD600 nm=0.4-0.6. The bacterial cells were harvested and diluted to yield a suspension with an OD600 nm of 0.1. Tryptic soy agar (TSA) plates were flooded with 3 ml of the bacterial cell suspension. Excess culture was removed, and the plates were air dried at room temperature for ˜30 min in a laminar flow hood. 10 μl of each peptidoglycan hydrolase dilution was then spotted onto the air-dried lawn, allowed to air dry, and the culture plates incubated overnight at 37° C. The following day, plates were evaluated visually and photographed.
In the Plate lysis method, bacterial cells were scraped from a sub-lethal (not fully cleared) spot from a plate lysis assay (described above), and these ‘exposed’ cells were used to inoculate 5 ml of TSB and grown for 4-6 hours to generate a new culture and lawn for subsequent exposure. Bacteria were passaged in this assay for up to 10 consecutive days, at which time the S. aureus were tested in MIC assays. Plate lysis repeated exposure experiments were performed in duplicate.

S. aureus SA113 biofilms = assay: Static biofilm reduction model; assay type: cell-based; details: 1 h treatment, compared to buffer treated biofilms
Description: S. aureus SA113 biofilms were treated for 1 h with 100 μl of each enzyme individually or as equimolar mixtures of LysK and lysostaphin (white bars) in 300 mM NaCl, 50 mM NaH2PO4, 30% glycerol. Constructs are named as in FIG. 1a. Results are reported as the percentage reduction in biofilm compared to buffer treated biofilms. Data presented represents 4 replicates. Values represent means±[…]. Asterisks indicate significant differences (single factor ANOVA with t-test post hoc analysis Sidák correction) as compared to LysK (K) at that concentration. Adjusted alpha p<0.026. Peptidoglycan hydrolase constructs: lysostaphin (L), LysK (K), triple fusion K-L, and triple fusion (L-K), as named in FIG. 1a.
In the static biofilm reduction model, biofilms were produced as previously described (Gross et al. 2001. Infect. Immun. 69:3423-3426) with the following modifications. S. aureus strains were grown overnight in 5 ml TSB supplemented with 0.25% D(+)-glucose without shaking at 37° C. The culture was diluted 1/200 in fresh culture medium, and 200 μl was added to each well of a 96 well microtiter plate and incubated without shaking for 24 h at 37° C. Biofilms in the wells were washed twice with 200 μl SLB, treated with […] peptidoglycan hydrolase (Lysostaphin, LysK and the triple fusion proteins K-L and L-K) in SLB at concentrations indicated (FIG. 4) for 1 h at room temperature, and washed twice with 100 μl SLB. Adherent bacteria were fixed with 200 μl 95% ethanol-5% glacial acetic acid for 20 min, washed once with water, and stained with 100 μl 0.4% crystal violet for 15 min at room temperature. Excess stain was removed with 3 water washes. Bound stain was resolubilized in 33% acetic acid, and 20 μl was transferred to a 96 well plate containing 180 μl water. The OD590nm was determined in a Spectra Max plate reader. Percent reduction represents the difference in absorbance between biofilms exposed to buffer only and experimental wells that were exposed to the peptidoglycan hydrolases.
Static biofilms were created with S. aureus strain SA113 in 96 well dishes and treated for one hour with 100 μl of the indicated concentrations of each enzyme individually or as an equimolar mixture of LysK and lysostaphin.

[1] = first exposure of the resistance development experiment, FIG. 1b
[2] = first exposure, molar concentration in brackets

## K-L: both LysK lytic domains fused to the N-terminus of lysostaphin; SEQ ID NO:5, protein SEQ ID NO:6
S. aureus Newbould 305
  Minimum Inhibitory Conc. (median μg/ml): 11 µg/mL
S. aureus Newman
  Minimum Inhibitory Conc. (median μg/ml): 7.0 µg/mL
S. aureus Newman; [1]
  First exposure MIC: 7 µg/mL
S. aureus Newman; [2]
  First exposure MIC: 0.097 µM
N315 (NRS 70)
  Minimum Inhibitory Conc. (median μg/ml): 7.0 µg/mL
NRS 192
  Minimum Inhibitory Conc. (median μg/ml): 11 µg/mL
NRS 193
  Minimum Inhibitory Conc. (median μg/ml): 7.0 µg/mL
NRS 194
  Minimum Inhibitory Conc. (median μg/ml): 14 µg/mL
NRS 209
  Minimum Inhibitory Conc. (median μg/ml): 7.0 µg/mL
NRS 271
  Minimum Inhibitory Conc. (median μg/ml): 7.0 µg/mL
Sanger 252 (NRS 71)
  Minimum Inhibitory Conc. (median μg/ml): 5.5 µg/mL
USA 100 (NRS 382)
  Minimum Inhibitory Conc. (median μg/ml): 14 µg/mL
USA 200 (NRS 383)
  Minimum Inhibitory Conc. (median μg/ml): 5.5 µg/mL
USA 300 (NRS 384)
  Minimum Inhibitory Conc. (median μg/ml): 11 µg/mL
USA 400 (NRS 123)
  Minimum Inhibitory Conc. (median μg/ml): 7.0 µg/mL
USA 500 (NRS 385)
  Minimum Inhibitory Conc. (median μg/ml): 7.0 µg/mL
USA 600 (NRS 22)
  Minimum Inhibitory Conc. (median μg/ml): 7.0 µg/mL
S. epidermidis MP04
  Minimum Inhibitory Conc. (median μg/ml): 3.5 µg/mL
S. xylosus MP05
  Minimum Inhibitory Conc. (median μg/ml): 3.5 µg/mL
S. aureus strain Newman
  increased resistance during 10 rounds of sub-lethal exposure in plate lysis assays: no detectable increase in resistance
S. aureus SA113 biofilms
  static biofilm reduction (in words): effectively reduced staphylococcal biofilms

## L: 247 amino acid mature (secreted) lysostaphin, staphylolytic bacteriocin, C-terminal His6 tag; SEQ ID NO:1 [reference compound]
S. aureus Newbould 305
  Minimum Inhibitory Conc. (median μg/ml): 12 µg/mL
S. aureus Newman
  Minimum Inhibitory Conc. (median μg/ml): 0.77 µg/mL
S. aureus Newman; [1]
  First exposure MIC: 0.77 µg/mL
S. aureus Newman; [2]
  First exposure MIC: 0.027 µM
N315 (NRS 70)
  Minimum Inhibitory Conc. (median μg/ml): 0.68 µg/mL
NRS 192
  Minimum Inhibitory Conc. (median μg/ml): 1.2 µg/mL
NRS 193
  Minimum Inhibitory Conc. (median μg/ml): 1.2 µg/mL
NRS 194
  Minimum Inhibitory Conc. (median μg/ml): 1.2 µg/mL
NRS 209
  Minimum Inhibitory Conc. (median μg/ml): 0.97 µg/mL
NRS 271
  Minimum Inhibitory Conc. (median μg/ml): 0.58 µg/mL
Sanger 252 (NRS 71)
  Minimum Inhibitory Conc. (median μg/ml): 0.58 µg/mL
USA 100 (NRS 382)
  Minimum Inhibitory Conc. (median μg/ml): 1.2 µg/mL
USA 200 (NRS 383)
  Minimum Inhibitory Conc. (median μg/ml): 1.2 µg/mL
USA 300 (NRS 384)
  Minimum Inhibitory Conc. (median μg/ml): 1.2 µg/mL
USA 400 (NRS 123)
  Minimum Inhibitory Conc. (median μg/ml): 1.2 µg/mL
USA 500 (NRS 385)
  Minimum Inhibitory Conc. (median μg/ml): 1.2 µg/mL
USA 600 (NRS 22)
  Minimum Inhibitory Conc. (median μg/ml): 1.2 µg/mL
S. epidermidis MP04
  Minimum Inhibitory Conc. (median μg/ml): 6.2 µg/mL
S. xylosus MP05
  Minimum Inhibitory Conc. (median μg/ml): 0.39 µg/mL
S. aureus strain Newman
  increased resistance during 10 rounds of sub-lethal exposure in plate lysis assays: 8 fold
S. aureus SA113 biofilms
  static biofilm reduction (in words): effectively reduced staphylococcal biofilms

B1: K: 495 amino-acid staphylococcal phage K endolysin LysK, C-terminal His6 tag; SEQ ID NO:3 (protein)
chain: MAKTQAEINKRLDAYAKGTVDSPYRVKKATSYDPSFGVMEAGAIDADGYYHAQCQDLITDYVLWLTDNKVRTWGNAKDQIKQSYGTGFKIHENKPSTVPKKGWIAVFTSGSYEQWGHIGIVYDGGNTSTFTILEQNWNGYANKKPTKRVDNYYGLTHFIEIPVKAGTTVKKETAKKSASKTPAPKKKATLKVSKNHINYTMDKRGKKPEGMVIHNDAGRSSGQQYENSLANAGYARYANGIAHYYGSEGYVWEAIDAKNQIAWHTGDGTGANSGNFRFAGIEVCQSMSASDAQFLKNEQAVFQFTAEKFKEWGLTPNRKTVRLHMEFVPTACPHRSMVLHTGFNPVTQGRPSQAIMNKLKDYFIKQIKNYMDKGTSSSTVVKDGKTSSASTPATRPVTGSWKKNQYGTWYKPENATFVNGNQPIVTRIGSPFLNAPVGGNLPAGATIVYDEVCIQAGHIWIGYNAYNGNRVYCPVRTCQGVPPNQIPGVAWGVFKLEHHHHHH
modifications: C-terminal His6 tag; Phage K
S. aureus Newbould 305
  Minimum Inhibitory Conc. (median μg/ml): 34 µg/mL
S. aureus Newman
  Minimum Inhibitory Conc. (median μg/ml): 47 µg/mL
S. aureus Newman; [1]
  First exposure MIC: 47 µg/mL
S. aureus Newman; [2]
  First exposure MIC: 0.84 µM
N315 (NRS 70)
  Minimum Inhibitory Conc. (median μg/ml): 37 µg/mL
NRS 192
  Minimum Inhibitory Conc. (median μg/ml): 80 µg/mL
NRS 193
  Minimum Inhibitory Conc. (median μg/ml): 37 µg/mL
NRS 194
  Minimum Inhibitory Conc. (median μg/ml): 69 µg/mL
NRS 209
  Minimum Inhibitory Conc. (median μg/ml): 40 µg/mL
NRS 271
  Minimum Inhibitory Conc. (median μg/ml): 44 µg/mL
Sanger 252 (NRS 71)
  Minimum Inhibitory Conc. (median μg/ml): 29 µg/mL
USA 100 (NRS 382)
  Minimum Inhibitory Conc. (median μg/ml): 96 µg/mL
USA 200 (NRS 383)
  Minimum Inhibitory Conc. (median μg/ml): 34 µg/mL
USA 300 (NRS 384)
  Minimum Inhibitory Conc. (median μg/ml): 75 µg/mL
USA 400 (NRS 123)
  Minimum Inhibitory Conc. (median μg/ml): 75 µg/mL
USA 500 (NRS 385)
  Minimum Inhibitory Conc. (median μg/ml): 67 µg/mL
USA 600 (NRS 22)
  Minimum Inhibitory Conc. (median μg/ml): 75 µg/mL
S. epidermidis MP04
  Minimum Inhibitory Conc. (median μg/ml): 8.4 µg/mL
S. xylosus MP05
  Minimum Inhibitory Conc. (median μg/ml): 8.4 µg/mL
S. aureus strain Newman
  increased resistance during 10 rounds of sub-lethal exposure in plate lysis assays: 2 fold
S. aureus SA113 biofilms
  static biofilm reduction (in words): effectively reduced staphylococcal biofilms
